Measured values reported in PubChem BioAssay (NCI).
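Exposure lasted 48 hours, with cells grown in 96-well plates and compounds tested at five concentrations. TGI is the concentration that stops growth completely.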

Assays:
Experiment in all cases: NCI anticancer screen, dose series, 48 h
[1] = test system: IGROV1 ovarian
[2] = test system: UO-31 renal
[3] = test system: NCI-H460 lung
[4] = test system: RXF 393 renal
[5] = test system: A549 NSCLC
[6] = test system: HOP-92 NSCLC
[7] = test system: SN12C renal
[8] = test system: KM20L2 colon
[9] = test system: SW-620 colon
[10] = test system: EKVX NSCLC
[11] = test system: HOP-62 NSCLC
[12] = test system: HCT-15 colon
[13] = test system: COLO 205 colon
[14] = test system: HT29 colon
[15] = test system: SNB-75 CNS
[16] = test system: HOP-18 NSCLC
[17] = test system: LXFL 529 NSCLC
[18] = test system: SK-MEL-2 melanoma
[19] = test system: RXF-631 renal
[20] = test system: DMS 114 small cell lung
[21] = test system: DMS 273 small cell lung
[22] = test system: SK-MEL-28 melanoma
[23] = test system: HL-60(TB) leukemia
[24] = test system: KM12 colon
[25] = test system: OVCAR-4 ovarian
[26] = test system: SK-OV-3 ovarian
[27] = test system: SNB-19 CNS
[28] = test system: K-562 leukemia
[29] = test system: M14 melanoma
[30] = test system: CAKI-1 renal
[31] = test system: CCRF-CEM leukemia
[32] = test system: DLD-1 colon
[33] = test system: OVCAR-5 ovarian
[34] = test system: HCC-2998 colon
[35] = test system: RPMI-8226 leukemia
[36] = test system: OVCAR-8 ovarian
[37] = test system: U251 CNS
[38] = test system: SF-295 CNS
[39] = test system: MOLT-4 leukemia
[40] = test system: UACC-257 melanoma
[41] = test system: UACC-62 melanoma
[42] = test system: SF-268 CNS
[43] = test system: SK-MEL-5 melanoma
[44] = test system: MALME-3M melanoma
[45] = test system: 786-0 renal
[46] = test system: SNB-78 CNS
[47] = test system: SF-539 CNS
[48] = test system: NCI-H226 lung
[49] = test system: HCT-116 colon
[50] = test system: OVCAR-3 ovarian
[51] = test system: NCI-H522 lung
[52] = test system: NCI-H23 lung
[53] = test system: M19-MEL melanoma
[54] = test system: ACHN renal
[55] = test system: LOX IMVI melanoma
[56] = test system: SR leukemia
[57] = test system: A498 renal
[58] = test system: TK-10 renal

Measured: TGI

CNCCCCN(C)/[N+]([O-])=N\O
> 100 µM: [1] | [2] | [3] | [4] | [5] | [6] | [7] | [8] | [9] | [10] | [11] | [12] | [13] | [14] | [15] | [16] | [17] | [18] | [19] | [20] | [21] | [22] | [23] | [24] | [25] | [26] | [27] | [28] | [29] | [30] | [31] | [32] | [33] | [34] | [35] | [36] | [37] | [38] | [39] | [40] | [41] | [42] | [43] | [44] | [45] | [46] | [47] | [48] | [49] | [50] | [51] | [52] | [53] | [54]

CC(N)Cc1ccc(F)cc1 (stereo unspecified)
> 100 µM: [55] | [56] | [1] | [2] | [3] | [4] | [5] | [6] | [7] | [8] | [9] | [10] | [11] | [12] | [13] | [57] | [58] | [14] | [15] | [16] | [17] | [18] | [19] | [20] | [21] | [22] | [23] | [24] | [25] | [26] | [27] | [28] | [29] | [30] | [31] | [32] | [33] | [34] | [35] | [36] | [37] | [38] | [39] | [40] | [41] | [42] | [43] | [44] | [45] | [46] | [47] | [48] | [49] | [50] | [51] | [52] | [54]
